From article PMC4141155 (2014) come the findings set out here.

“And” between values parts separate entries of the source, which are not always exact repeats. Equal entries are not always repeated.

Assay [1] relates to d[(TTAGGG)4TTA] (DNA, G4) TTAGGGTTAGGGTTAGGGTTAGGGTTA
As to the kind of experiment: ESI-TOF-MS fraction of bound G-quadruplex. The following applies: NH4+ 50 mM (ammonium acetate); pH 7.6, 50 % methanol; equimolar 10 μM.

The test system is the same in assay [2]. Nature of the assay: ESI-TOF-MS. The following applies: NH4+ 50 mM (ammonium acetate), pH 7.6, 50 % methanol.
The subject of assay [3] is r[(UUAGGG)4UUA] (RNA, G4) UUAGGGUUAGGGUUAGGGUUAGGGUUA
Nature of the assay: ESI-TOF-MS. The following applies: NH4+ 50 mM (ammonium acetate); pH 7.6, 50 % methanol, equimolar 5 or 10 μM; first of two stepwise constants.

Assay [4] has as its system dAGGG(TTAGGG)3 (DNA, G4) AGGGTTAGGGTTAGGGTTAGGG
As to the kind of experiment: UV melting at 295 nm. The settings on record: K+ 100 mM (KCl); 25 mM Tris–HCl pH 7.4; 5 μM DNA, 10 μM ligand; 2.27 °C higher than tetrachloride.

Consider `C[n+]1ccc(-c2c3nc(c(-c4cc[n+](C)cc4)c4ccc([nH]4)c(-c4cc[n+](C)cc4)c4nc(c(-c5cc[n+](C)cc5)c5ccc2[nH]5)C=C4)C=C3)cc1`, for which the RBA in assay [1] is 85.96% and 72.28%. The “K 1” value in assay [2] (equimolar 5 or 10 μM, first of two stepwise constants) is reported as “(1.87 ± 0.19) × 10^6 M^−1”. Besides, in assay [3], the “K 1 (column head misprinted K 2)” value is listed as “(5.62 ± 0.71) × 10^7 M^−1”. The binding entry in assay [4] is “yes”.

For `Cc1ccc(S(=O)(=O)O)cc1`, in assay [2] (tosyl adducts seen in equimolar mixture with TMPyP4 tetratosylate, 10 μM), the binding entry is recorded as “yes”.
